Legend:
[1] = molecular target: T1, Prostaglandin G/H synthase 1 (Homo sapiens, UniProt P23219); type: functional
[2] = molecular target: Vascular endothelial growth factor receptor 2 (Homo sapiens, UniProt P35968); type: functional
[3] = molecular target: T1, Prostaglandin G/H synthase 1; type: functional; remark: listed apart in the source
[4] = molecular target: T2, Alpha-2A adrenergic receptor (Homo sapiens, UniProt P08913)
T2 sequence (P08913 whole entry): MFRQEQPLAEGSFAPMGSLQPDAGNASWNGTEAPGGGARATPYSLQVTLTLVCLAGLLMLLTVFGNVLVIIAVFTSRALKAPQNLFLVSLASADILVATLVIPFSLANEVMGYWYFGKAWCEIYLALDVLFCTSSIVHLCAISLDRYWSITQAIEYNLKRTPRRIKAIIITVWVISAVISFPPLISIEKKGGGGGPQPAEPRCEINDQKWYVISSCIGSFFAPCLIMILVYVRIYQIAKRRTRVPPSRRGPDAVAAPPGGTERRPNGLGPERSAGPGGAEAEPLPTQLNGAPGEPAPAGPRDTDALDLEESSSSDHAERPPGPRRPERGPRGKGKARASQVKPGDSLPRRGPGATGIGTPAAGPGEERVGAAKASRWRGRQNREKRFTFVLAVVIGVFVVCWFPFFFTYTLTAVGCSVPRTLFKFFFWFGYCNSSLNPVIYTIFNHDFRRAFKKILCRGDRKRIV

[5] = molecular target: T3, Androgen receptor (Homo sapiens, UniProt P10275)
T3 sequence (P10275 whole entry): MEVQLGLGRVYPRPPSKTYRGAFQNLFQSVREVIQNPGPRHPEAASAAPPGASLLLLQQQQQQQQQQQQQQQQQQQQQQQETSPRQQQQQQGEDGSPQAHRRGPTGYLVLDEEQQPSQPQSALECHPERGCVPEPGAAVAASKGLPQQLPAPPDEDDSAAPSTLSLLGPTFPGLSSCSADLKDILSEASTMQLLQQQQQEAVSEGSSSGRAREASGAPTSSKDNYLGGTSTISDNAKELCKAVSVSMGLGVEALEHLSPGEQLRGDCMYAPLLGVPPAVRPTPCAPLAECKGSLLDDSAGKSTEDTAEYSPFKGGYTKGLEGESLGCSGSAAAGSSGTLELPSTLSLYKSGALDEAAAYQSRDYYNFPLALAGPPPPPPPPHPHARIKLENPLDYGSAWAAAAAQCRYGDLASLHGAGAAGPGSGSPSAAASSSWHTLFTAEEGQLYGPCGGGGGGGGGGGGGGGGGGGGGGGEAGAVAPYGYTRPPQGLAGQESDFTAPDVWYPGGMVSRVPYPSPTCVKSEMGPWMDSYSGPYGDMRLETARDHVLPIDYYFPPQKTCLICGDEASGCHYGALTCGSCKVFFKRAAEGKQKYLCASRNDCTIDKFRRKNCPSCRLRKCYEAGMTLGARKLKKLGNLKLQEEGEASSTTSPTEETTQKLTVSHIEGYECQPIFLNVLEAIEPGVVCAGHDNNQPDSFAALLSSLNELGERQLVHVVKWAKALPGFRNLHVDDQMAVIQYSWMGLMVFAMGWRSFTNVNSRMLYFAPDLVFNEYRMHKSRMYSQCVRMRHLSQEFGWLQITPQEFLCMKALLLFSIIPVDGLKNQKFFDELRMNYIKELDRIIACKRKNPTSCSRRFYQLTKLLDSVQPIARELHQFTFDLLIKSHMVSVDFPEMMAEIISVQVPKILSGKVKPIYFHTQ

[6] = molecular target: Mu-type opioid receptor (Homo sapiens, UniProt P35372)
[7] = molecular target: D(3) dopamine receptor (Homo sapiens, UniProt P35462)
[8] = molecular target: T4, Alpha-1A adrenergic receptor (Homo sapiens, UniProt P35348); type: functional, cell-based
T4 sequence (P35348 whole entry): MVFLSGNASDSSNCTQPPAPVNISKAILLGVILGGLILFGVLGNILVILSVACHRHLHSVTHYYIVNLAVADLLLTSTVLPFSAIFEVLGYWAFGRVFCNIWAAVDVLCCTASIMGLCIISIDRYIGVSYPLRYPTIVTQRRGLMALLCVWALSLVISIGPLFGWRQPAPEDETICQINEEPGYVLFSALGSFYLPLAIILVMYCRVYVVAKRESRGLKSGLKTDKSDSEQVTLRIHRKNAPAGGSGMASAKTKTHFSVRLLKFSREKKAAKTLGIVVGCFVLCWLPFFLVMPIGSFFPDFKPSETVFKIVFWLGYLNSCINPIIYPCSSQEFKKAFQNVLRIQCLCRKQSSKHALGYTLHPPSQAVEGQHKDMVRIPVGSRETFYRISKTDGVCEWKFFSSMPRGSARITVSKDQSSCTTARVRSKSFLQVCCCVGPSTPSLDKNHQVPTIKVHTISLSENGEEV

[9] = molecular target: D(1A) dopamine receptor (Homo sapiens, UniProt P21728)
[10] = molecular target: T5, Estrogen receptor (Homo sapiens, UniProt P03372); type: functional
T5 sequence (P03372 whole entry): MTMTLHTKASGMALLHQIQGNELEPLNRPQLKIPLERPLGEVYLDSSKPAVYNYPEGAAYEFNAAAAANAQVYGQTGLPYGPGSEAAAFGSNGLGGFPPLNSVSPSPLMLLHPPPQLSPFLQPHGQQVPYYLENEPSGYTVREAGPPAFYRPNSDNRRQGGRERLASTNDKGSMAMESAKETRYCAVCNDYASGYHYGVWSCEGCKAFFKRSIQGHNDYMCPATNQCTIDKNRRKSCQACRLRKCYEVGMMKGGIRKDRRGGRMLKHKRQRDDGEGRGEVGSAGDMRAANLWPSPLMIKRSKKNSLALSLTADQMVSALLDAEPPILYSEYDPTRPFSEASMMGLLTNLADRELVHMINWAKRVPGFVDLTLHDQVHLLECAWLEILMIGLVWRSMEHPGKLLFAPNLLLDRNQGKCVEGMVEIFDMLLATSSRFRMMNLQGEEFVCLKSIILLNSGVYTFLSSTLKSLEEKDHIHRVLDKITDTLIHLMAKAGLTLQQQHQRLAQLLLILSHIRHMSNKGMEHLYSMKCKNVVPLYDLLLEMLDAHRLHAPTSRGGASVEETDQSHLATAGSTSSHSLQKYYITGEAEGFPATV

[11] = molecular target: T5, Estrogen receptor; type: functional; remark: listed apart in the source
Also: assay procedure not described here.

T1 sequence (P23219 whole entry): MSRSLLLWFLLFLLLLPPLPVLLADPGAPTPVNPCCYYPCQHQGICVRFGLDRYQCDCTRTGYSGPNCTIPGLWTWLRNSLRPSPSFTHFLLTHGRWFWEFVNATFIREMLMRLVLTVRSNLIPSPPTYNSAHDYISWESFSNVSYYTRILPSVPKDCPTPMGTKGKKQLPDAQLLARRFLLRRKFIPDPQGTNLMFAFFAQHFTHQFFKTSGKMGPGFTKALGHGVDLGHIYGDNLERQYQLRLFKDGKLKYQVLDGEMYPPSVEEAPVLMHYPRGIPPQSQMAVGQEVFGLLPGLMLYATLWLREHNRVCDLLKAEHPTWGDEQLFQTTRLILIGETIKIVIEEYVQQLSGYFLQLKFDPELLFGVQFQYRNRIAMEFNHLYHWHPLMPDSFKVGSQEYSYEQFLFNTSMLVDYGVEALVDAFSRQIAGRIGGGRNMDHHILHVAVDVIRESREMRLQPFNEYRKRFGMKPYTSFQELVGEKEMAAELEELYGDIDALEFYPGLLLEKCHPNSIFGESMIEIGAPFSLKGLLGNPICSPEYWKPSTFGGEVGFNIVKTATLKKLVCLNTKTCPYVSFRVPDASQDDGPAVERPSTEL
Sequence of D(1A) dopamine receptor (P21728 whole entry): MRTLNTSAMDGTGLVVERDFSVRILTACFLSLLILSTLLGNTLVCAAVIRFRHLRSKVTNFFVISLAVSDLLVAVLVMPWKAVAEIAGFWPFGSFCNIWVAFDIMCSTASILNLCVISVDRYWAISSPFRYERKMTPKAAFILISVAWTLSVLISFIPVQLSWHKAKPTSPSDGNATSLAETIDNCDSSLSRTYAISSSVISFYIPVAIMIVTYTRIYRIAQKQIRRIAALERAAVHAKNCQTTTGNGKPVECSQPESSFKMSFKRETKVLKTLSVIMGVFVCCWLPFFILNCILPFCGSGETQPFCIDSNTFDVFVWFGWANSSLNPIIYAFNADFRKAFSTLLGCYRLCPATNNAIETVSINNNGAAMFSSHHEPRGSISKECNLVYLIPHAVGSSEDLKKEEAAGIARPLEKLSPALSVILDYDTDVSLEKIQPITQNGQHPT
Sequence of Vascular endothelial growth factor receptor 2 (P35968 whole entry): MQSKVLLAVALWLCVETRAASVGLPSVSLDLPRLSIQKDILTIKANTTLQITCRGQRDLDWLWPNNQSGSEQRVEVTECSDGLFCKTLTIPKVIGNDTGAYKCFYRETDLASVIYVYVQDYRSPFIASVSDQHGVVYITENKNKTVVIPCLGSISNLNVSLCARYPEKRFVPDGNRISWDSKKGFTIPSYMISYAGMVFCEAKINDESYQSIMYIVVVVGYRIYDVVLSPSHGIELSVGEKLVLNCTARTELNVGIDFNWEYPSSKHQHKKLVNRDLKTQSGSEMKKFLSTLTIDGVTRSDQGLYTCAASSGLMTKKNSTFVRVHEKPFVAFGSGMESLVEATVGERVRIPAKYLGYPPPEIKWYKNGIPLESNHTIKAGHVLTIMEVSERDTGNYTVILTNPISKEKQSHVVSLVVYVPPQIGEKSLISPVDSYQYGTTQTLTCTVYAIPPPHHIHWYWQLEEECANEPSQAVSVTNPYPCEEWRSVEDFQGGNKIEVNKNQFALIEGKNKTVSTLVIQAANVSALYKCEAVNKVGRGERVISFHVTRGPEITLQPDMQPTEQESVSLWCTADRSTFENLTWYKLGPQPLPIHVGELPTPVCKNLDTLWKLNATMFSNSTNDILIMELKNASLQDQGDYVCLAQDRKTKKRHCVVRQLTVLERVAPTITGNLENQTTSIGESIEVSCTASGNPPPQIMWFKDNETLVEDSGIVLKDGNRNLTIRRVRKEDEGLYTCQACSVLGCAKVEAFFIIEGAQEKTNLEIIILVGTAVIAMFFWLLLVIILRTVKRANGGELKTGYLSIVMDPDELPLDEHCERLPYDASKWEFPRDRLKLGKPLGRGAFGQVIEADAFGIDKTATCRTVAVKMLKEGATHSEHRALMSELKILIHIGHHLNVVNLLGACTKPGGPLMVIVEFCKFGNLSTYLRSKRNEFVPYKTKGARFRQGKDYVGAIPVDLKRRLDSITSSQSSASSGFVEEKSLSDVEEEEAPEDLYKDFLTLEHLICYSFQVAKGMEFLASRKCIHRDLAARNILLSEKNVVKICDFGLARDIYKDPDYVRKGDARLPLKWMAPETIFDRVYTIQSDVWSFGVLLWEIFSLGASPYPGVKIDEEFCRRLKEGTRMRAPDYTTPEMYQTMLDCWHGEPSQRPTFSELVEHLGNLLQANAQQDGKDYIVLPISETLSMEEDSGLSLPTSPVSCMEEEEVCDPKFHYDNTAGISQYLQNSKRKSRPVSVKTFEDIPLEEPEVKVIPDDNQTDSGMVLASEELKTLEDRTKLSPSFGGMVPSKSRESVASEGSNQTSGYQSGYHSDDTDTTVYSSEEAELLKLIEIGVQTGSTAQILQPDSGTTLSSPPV
Sequence of Mu-type opioid receptor (P35372 whole entry): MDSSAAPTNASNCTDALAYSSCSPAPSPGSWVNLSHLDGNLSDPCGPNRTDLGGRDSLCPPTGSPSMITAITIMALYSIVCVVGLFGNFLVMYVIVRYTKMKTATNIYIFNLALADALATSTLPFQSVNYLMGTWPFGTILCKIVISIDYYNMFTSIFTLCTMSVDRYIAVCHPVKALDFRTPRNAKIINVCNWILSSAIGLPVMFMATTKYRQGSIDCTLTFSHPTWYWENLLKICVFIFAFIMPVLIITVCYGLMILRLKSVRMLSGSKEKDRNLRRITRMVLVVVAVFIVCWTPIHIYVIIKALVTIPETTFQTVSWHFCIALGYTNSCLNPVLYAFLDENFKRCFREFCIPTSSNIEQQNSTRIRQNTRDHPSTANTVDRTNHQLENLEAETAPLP
Sequence of D(3) dopamine receptor (P35462 whole entry): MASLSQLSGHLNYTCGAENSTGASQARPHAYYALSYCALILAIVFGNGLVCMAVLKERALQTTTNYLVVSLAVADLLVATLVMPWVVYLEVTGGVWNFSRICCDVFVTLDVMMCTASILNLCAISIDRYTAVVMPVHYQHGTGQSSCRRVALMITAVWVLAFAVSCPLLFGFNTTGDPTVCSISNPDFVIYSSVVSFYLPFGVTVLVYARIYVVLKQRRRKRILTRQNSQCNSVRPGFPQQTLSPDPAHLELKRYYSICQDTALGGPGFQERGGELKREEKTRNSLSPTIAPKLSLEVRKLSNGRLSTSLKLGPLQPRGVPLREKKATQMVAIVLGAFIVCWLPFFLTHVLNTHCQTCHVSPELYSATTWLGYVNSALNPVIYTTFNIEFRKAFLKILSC

Row | SMILES | AC50 [1] [µM] | AC50 [2] [µM] | AC50 [3] [µM] | AC50 [4] [µM] | AC50 [5] [µM] | AC50 [6] [µM] | AC50 [7] [µM] | AC50 [8] [µM] | AC50 [9] [µM] | AC50 [10] [µM] | AC50 [11] [µM]
1 | CCN(CC)CCCC(C)Nc1c2ccc(Cl)cc2nc2ccc(OC)cc12 (stereo unspecified) [QUINACRINE] | > 30 | > 30 | > 30 | 11.9 | > 30 | 5.86 | 7.05 | > 1 | 12.3 | – | –
2 | CCOC(=O)[C@@H](N)Cc1ccc(-c2cc(O[C@H](c3ccc(Cl)cc3-n3ccc(C)n3)C(F)(F)F)nc(N)n2)cc1 [TELOTRISTAT ETHYL] | – | – | – | – | – | – | – | – | – | > 30 | > 30

From ChEMBL document CHEMBL5291721, “A preclinical secondary pharmacology resource illuminates target-adverse drug reaction associations of marketed drugs” (Nat Commun, 2023)
